Results published in PMC9605374 (Marine Drugs, 2022).

Columns and labels:
noncancer cells = assay: MTT assay, mean IC50 in noncancer cell panel; format: cell-based; conditions: Homo sapiens, mean over PNT2, RWPE-1, HEK293, MRC-9, 48 h
Description: To examine the anticancer potential and selectivity of NB, we used a panel of six human prostate cancer cell lines, harboring different levels of treatment resistance to representatively reflect the heterogeneity of the disease. […] Additionally, four human noncancer cells lines were utilized in order to determine the selectivity of NB towards prostate cancer cells, i.e., prostate noncancer PNT2 and RWPE-1 cells, human embryonic kidney HEK 293T cells, and human fibroblasts MRC-9. The different cell lines were treated with NB and the cell viability was examined using MTT assay (Figure 1). The mean IC50 of NB and docetaxel (used as a reference substance) in noncancerous cell lines was divided by the mean IC50 in the prostate cancer cell lines to determine the selectivity index (SI).
The MTT assay was used to monitor the effect of the drugs on cell viability in terms of metabolic activity, as previously reported. First, preincubation of the cells in 96-well plates (6 × 10^3 cells/well in 100 μL/well) was performed overnight in the correspondent culture medium. Next, the medium was exchanged for fresh medium containing the investigated compounds or a vehicle (100 μL/well). […] Finally, 50 μL/well of DMSO were added to solve the formed formazan crystals produced by the metabolic active cells and Infinite F200PRO reader (TECAN, Männedorf, Switzerland) was used to measure the cell viability. […]

22Rv1 cells [1] = assay: Trypan blue exclusion assay; format: cell-based; conditions: Homo sapiens, 22Rv1, trypan blue exclusion
Method: Figure 2 Trypan blue exclusion assay. 22Rv1 cells were treated for 48 h (A) or 168 h (B) with the indicated concentrations of NB. The cells were harvested, stained, and counted with an automatic Vi-CELL cell counter device. Number of replicates n = 3.
The trypan blue exclusion assay was used to monitor the effect of the drugs on cell viability regarding cellular membrane integrity and was performed as described before. In brief, cells (2 × 10^5 cells/well) were seeded in 6-well plates (1 mL/well) and incubated overnight. Next, the media was substituted with fresh media (1 mL/well) containing drugs at indicated concentrations. Cells were treated for 48 h, harvested by trypsination, and stained with trypan blue. The automatic Beckman Coulter Vi-CELL (Beckman Coulter, Krefeld, Germany) was used to count trypan blue-positive and -negative cells. Trypan blue-negative cells were postulated to have an intact cellular membrane (i.e., alive cells), whereas trypan blue-positive cells were assumed to have damaged cellular membrane (i.e., dead cells).

22Rv1 [2] = assay: Colony formation assay; format: cell-based, human; conditions: 22Rv1, 48 h treatment then 14 days, nanomolar concentrations
Method: (§1) Next, we investigated the effect of NB on the ability of cancer cells to form colonies from single cells using a colony formation assay and a preplating mode. […] However, this speculation awaits further confirmation in vivo.
(§2) Figure 3 Colony formation assay. The human cancer cells were seeded in 6-well plates and treated for 48 h with the indicated concentrations of NB. Then, the media was exchanged, and the plates were incubated for 14 days, which was followed by fixation, staining, and counting. Number of replicates n = 3. Statistical significance: * p < 0.05 (ANOVA).

PC3 = assay: Colony formation assay; format: cell-based, human; conditions: PC3, 48 h treatment then 14 days, nanomolar concentrations
Method: as §1, §2

VCaP = assay: Colony formation assay; format: cell-based, human; conditions: 48 h treatment then 14 days, nanomolar concentrations
Method: as §1, §2

22Rv1 cells [3] = assay: Drug combination study NB with MAPK inhibitors, MTT assay, SynergyFinder 2.0; format: cell-based; conditions: Homo sapiens, 22Rv1, 24 h, 24 h; for inhibition at 0.8 µM: 22Rv1, NB alone 0.8 μM; for inhibition at 3.1 µM: 22Rv1, NB alone 3.1 μM; for inhibition at 12.5 µM: 22Rv1, NB alone 12.5 μM; for inhibition at 50 µM: 22Rv1, NB alone 50 μM
Description: Whether activation of MAPKs contribute to cell death or survival depends not only on the cellular context, but also on the nature of the activating stimuli. Thus, to reveal the function of JNK1/2 and p38 in the anticancer effect of NB, we co-treated 22Rv1 cells with NB and specific inhibitors of the above-mentioned MAPKs. […] As MEK1/2 kinase directly and exclusively activates ERK1/2, PD98039 inhibitor is often used as an ERK1/2 inhibitor [38]. Thus, an inactivation of MEK1/2 leads solely to an inhibition of ERK1/2 [38]. Since the inhibitors themselves exert cytotoxic effects in cancer cells, we used a Chou–Talalay method to distinguish between synergism, additive effects, or antagonistic effects of the particular MAPK inhibitor on the compound bioactivity. For this, using an MTT assay, we determined a cytotoxic effect on various concentrations of NB, MAPK inhibitors, and their combinations in 22Rv1 cells. The viability data were further analyzed using the SynergyFinder v. 2.0 software (Network Pharmacology for Precision Medicine in the Research Program of System Oncology, Faculty of Medicine at University of Helsinki, Helsinki, Finland) and a Zero interaction potency (ZIP) reference model (Figure 7).
The experiments were carried out as previously reported. […] 22Rv1 cells (6 × 10^3 cells/well in 96-well plates) were simultaneously treated with NB and docetaxel; or pretreated with MAPK inhibitors for 1 h following treatment with NB in the total media volume of 100 µL/well. Following 24 h of incubation, the viability of the cells treated with individual drugs as well as their combinations was determined using MTT assay. […] Red areas (positive δ-values) and green areas (negative δ-values) indicate synergism and antagonism, respectively.

Artemia salina = test system: Artemia salina; parameters: method as in PMID 26039736; conditions: cited from earlier work
[4] = test system: panel of 14 human cancer cell lines and one prostate cancer cell line DU145; parameters: method as in PMID 26039736; conditions: panel of 14 human cancer cell lines and DU145, no significant anticancer activity; cited from earlier work
[5] = test system: mouse lymphoma cells L5178Y; parameters: method as in doi:10.1016/j.phytol.2014.12.010; conditions: cited from earlier work
22Rv1 [6] = test system: 22Rv1; parameters: method as in PMID 27355960; conditions: cited from earlier work

COc1ccc(C2SSC34CC5(O)C(Cl)C=CC(O)C5ON3C(=O)C2N(C)C4=O)c(O)c1OC (stereo not shown) [NB, N-methylpretrichodermamide B]
IC50 (noncancer cells): 15500 nM
IC50 (22Rv1 cells [1]; 48 h): 129 ± 62 nM
IC50 (22Rv1 cells [1]; 168 h): 276 ± 58 nM
colony-formation ability (22Rv1 [2]): inhibit the colony-formation ability
colony-formation ability (PC3): inhibit the colony-formation ability
colony-formation ability (VCaP): inhibit the colony-formation ability
inhibition at 0.8 µM (22Rv1 cells [3]; matrix with PD98059 (0 μM)): 28.5%
inhibition at 0.8 µM (22Rv1 cells [3]; matrix with SB203580 (0 μM)): 29.1%
inhibition at 0.8 µM (22Rv1 cells [3]; matrix with SP600125 (0 μM)): 17.3%
inhibition at 3.1 µM (22Rv1 cells [3]; matrix with PD98059 (0 μM)): 35.2%
inhibition at 3.1 µM (22Rv1 cells [3]; matrix with SB203580 (0 μM)): 33.3%
inhibition at 3.1 µM (22Rv1 cells [3]; matrix with SP600125 (0 μM)): 25.2%
inhibition at 12.5 µM (22Rv1 cells [3]; matrix with PD98059 (0 μM)): 43.4%
inhibition at 12.5 µM (22Rv1 cells [3]; matrix with SB203580 (0 μM)): 48.2%
inhibition at 12.5 µM (22Rv1 cells [3]; matrix with SP600125 (0 μM)): 40.5%
inhibition at 50 µM (22Rv1 cells [3]; matrix with PD98059 (0 μM)): 51.9%
inhibition at 50 µM (22Rv1 cells [3]; matrix with SB203580 (0 μM)): 54.9%
inhibition at 50 µM (22Rv1 cells [3]; matrix with SP600125 (0 μM)): 41%
LD50 (Artemia salina): 4.8 µM
IC50 [4]: > 10000 nM
IC50 [5]: 2000 nM
IC50 (22Rv1 [6]): 510 nM
